Species on record: Rattus norvegicus
Test: DrugMatrix - Regimen: Daily Repeat
Type: toxicity, organism-based, Sprague-Dawley
Parameters: regimen Daily Repeat, gender Male, age 6-8 weeks
Details: in vivo, po, 35 mg/kg, route oral GAVAGE, dose level Low, vehicle .5 % CMC; for ABSOLUTE BASOPHIL / ABSOLUTE EOSINOPHIL / ABSOLUTE LYMPHOCYTE / ABSOLUTE MONOCYTE / ABSOLUTE SEGMENTED NEUTROPHIL / BASOPHIL / EOSINOPHIL / ERYTHROCYTE COUNT / HEMATOCRIT / HEMOGLOBIN / LEUKOCYTE COUNT / LYMPHOCYTE / MEAN CORPUSCULAR HEMOGLOBIN / MEAN CORPUSCULAR HEMOGLOBIN CONCENTRATION / MEAN CORPUSCULAR VOLUME / MONOCYTE / NEUTROPHIL / NUCLEATED RED BLOOD CELLS / PLATELET COUNT: tissue Blood; for ALANINE AMINOTRANSFERASE / ALBUMIN / ALKALINE PHOSPHATASE / ASPARTATE AMINOTRANSFERASE / BLOOD UREA NITROGEN / CARBON DIOXIDE / CHLORIDE / CHOLESTEROL / CREATINE PHOSPHOKINASE / CREATININE / GLUCOSE / LACTATE DEHYDROGENASE / LIPASE / PHOSPHORUS / POTASSIUM / SODIUM / TOTAL BILIRUBIN / TOTAL PROTEIN / URIC ACID: tissue Plasma

For COC(=O)C1=C(C)NC(C)=C(C(=O)OC)C1c1ccccc1[N+](=O)[O-] [NIFEDIPINE], the “ABSOLUTE BASOPHIL” value (72 h, time 3 day) was 0 CELLS/uL, the “ABSOLUTE EOSINOPHIL” value (72 h, time 3 day) was 0 CELLS/uL and the “ABSOLUTE LYMPHOCYTE” value (72 h, time 3 day) was 17514.67 CELLS/uL. For the same compound, the “ABSOLUTE MONOCYTE” value (72 h, time 3 day) was 172 CELLS/uL, the “ABSOLUTE SEGMENTED NEUTROPHIL” value (72 h, time 3 day) was 1213.33 CELLS/uL and the BASOPHIL (72 h, time 3 day) was 0%. For the same compound, the EOSINOPHIL (72 h, time 3 day) was 0%, the “ERYTHROCYTE COUNT” value (72 h, time 3 day) was 5.2 x10E6/uL and the HEMATOCRIT (72 h, time 3 day) was 33.43%. For the same compound, the HEMOGLOBIN (72 h, time 3 day) was 12.8 G/DL, the “LEUKOCYTE COUNT” value (72 h, time 3 day) was 18.9 x10E3/uL and the LYMPHOCYTE (72 h, time 3 day) was 92.67%. For the same compound, the “MEAN CORPUSCULAR HEMOGLOBIN” value (72 h, time 3 day) was 24.63 pg, the “MEAN CORPUSCULAR HEMOGLOBIN CONCENTRATION” value (72 h, time 3 day) was 38.27 G/DL and the “MEAN CORPUSCULAR VOLUME” value (72 h, time 3 day) was 64.3 fL. For the same compound, the MONOCYTE (72 h, time 3 day) was 1%, the NEUTROPHIL (72 h, time 3 day) was 6.33% and the “NUCLEATED RED BLOOD CELLS” value (72 h, time 3 day) was 0.33 /100WBC. For the same compound, the “PLATELET COUNT” value (72 h, time 3 day) was 1358.33 x10E3/uL, the “ALANINE AMINOTRANSFERASE” value (72 h, time 3 day) was 46 u/L and the ALBUMIN (72 h, time 3 day) was 4.37 G/DL. For the same compound, the “ALKALINE PHOSPHATASE” value (72 h, time 3 day) was 361.33 u/L, the “ASPARTATE AMINOTRANSFERASE” value (72 h, time 3 day) was 91.33 u/L and the “BLOOD UREA NITROGEN” value (72 h, time 3 day) was 21.67 mg/dL. For the same compound, the “CARBON DIOXIDE” value (72 h, time 3 day) was 24 mmol/L, the CHLORIDE (72 h, time 3 day) was 106.33 MEQ/L and the CHOLESTEROL (72 h, time 3 day) was 90.67 mg/dL. For the same compound, the “CREATINE PHOSPHOKINASE” value (72 h, time 3 day) was 276 u/L, the CREATININE (72 h, time 3 day) was 0.31 mg/dL and the GLUCOSE (72 h, time 3 day) was 142.67 mg/dL. The “LACTATE DEHYDROGENASE” value (72 h, time 3 day) was 570 u/L, the LIPASE (72 h, time 3 day) was 11 u/L and the PHOSPHORUS (72 h, time 3 day) was 11.77 mg/dL. For the same compound, the POTASSIUM (72 h, time 3 day) was 6.88 MEQ/L, the SODIUM (72 h, time 3 day) was 148.6 MEQ/L and the “TOTAL BILIRUBIN” value (72 h, time 3 day) was 0.2 mg/dL. The “TOTAL PROTEIN” value (72 h, time 3 day) was 6.2 G/DL, the “URIC ACID” value (72 h, time 3 day) was 1.67 mg/dL and the “ABSOLUTE BASOPHIL” value (120 h, time 5 day) was 0 CELLS/uL. For the same compound, the “ABSOLUTE EOSINOPHIL” value (120 h, time 5 day) was 0 CELLS/uL, the “ABSOLUTE LYMPHOCYTE” value (120 h, time 5 day) was 11212.33 CELLS/uL and the “ABSOLUTE MONOCYTE” value (120 h, time 5 day) was 196 CELLS/uL. For the same compound, the “ABSOLUTE SEGMENTED NEUTROPHIL” value (120 h, time 5 day) was 1358.33 CELLS/uL, the BASOPHIL (120 h, time 5 day) was 0% and the EOSINOPHIL (120 h, time 5 day) was 0%. For the same compound, the “ERYTHROCYTE COUNT” value (120 h, time 5 day) was 6.29 x10E6/uL, the HEMATOCRIT (120 h, time 5 day) was 40.53% and the HEMOGLOBIN (120 h, time 5 day) was 14.9 G/DL. The “LEUKOCYTE COUNT” value (120 h, time 5 day) was 12.77 x10E3/uL, the LYMPHOCYTE (120 h, time 5 day) was 88.33% and the “MEAN CORPUSCULAR HEMOGLOBIN” value (120 h, time 5 day) was 23.67 pg. The “MEAN CORPUSCULAR HEMOGLOBIN CONCENTRATION” value (120 h, time 5 day) was 36.77 G/DL, the “MEAN CORPUSCULAR VOLUME” value (120 h, time 5 day) was 64.4 fL and the MONOCYTE (120 h, time 5 day) was 1.33%. For the same compound, the NEUTROPHIL (120 h, time 5 day) was 10.33%, the “NUCLEATED RED BLOOD CELLS” value (120 h, time 5 day) was 0 /100WBC and the “PLATELET COUNT” value (120 h, time 5 day) was 1155 x10E3/uL. For the same compound, the “ALANINE AMINOTRANSFERASE” value (120 h, time 5 day) was 57 u/L, the ALBUMIN (120 h, time 5 day) was 4.5 G/DL and the “ALKALINE PHOSPHATASE” value (120 h, time 5 day) was 414.33 u/L. The “ASPARTATE AMINOTRANSFERASE” value (120 h, time 5 day) was 79.67 u/L, the “BLOOD UREA NITROGEN” value (120 h, time 5 day) was 19 mg/dL and the “CARBON DIOXIDE” value (120 h, time 5 day) was 23 mmol/L. The CHLORIDE (120 h, time 5 day) was 104 MEQ/L, the CHOLESTEROL (120 h, time 5 day) was 81.67 mg/dL and the “CREATINE PHOSPHOKINASE” value (120 h, time 5 day) was 210 u/L. For the same compound, the CREATININE (120 h, time 5 day) was 0.21 mg/dL, the GLUCOSE (120 h, time 5 day) was 163.67 mg/dL and the “LACTATE DEHYDROGENASE” value (120 h, time 5 day) was 114.33 u/L. For the same compound, the LIPASE (120 h, time 5 day) was 10 u/L, the PHOSPHORUS (120 h, time 5 day) was 13.37 mg/dL and the POTASSIUM (120 h, time 5 day) was 7.57 MEQ/L. The SODIUM (120 h, time 5 day) was 147 MEQ/L, the “TOTAL BILIRUBIN” value (120 h, time 5 day) was 0.27 mg/dL and the “TOTAL PROTEIN” value (120 h, time 5 day) was 6.5 G/DL. The “URIC ACID” value (120 h, time 5 day) was 2 mg/dL.
